Results on 18 compounds are retold here after paper PMC6886544.

Experiment [1] deals with A431 cells (EGFR wild type). Kind of experiment: CellTiter-Glo viability assay, A431. To be noted: Homo sapiens, A-431, 96 h, read-out: EGFR CTG EC50 A431, A431, 96 hours, CellTiter-Glo. In general terms: In ATP-based viability assays light output follows the ATP content of the culture.
Method: (§1) A431, HCC827, H1975, A549 and H358 cells were obtained from the American Type Culture Collection (ATCC). A431 cells were cultured in DMEM high glucose media (Life Technologies, Germany), and HCC827, H1975, A549 as well as H358 cells were cultured in RPMI media (Life Technologies, Germany), both containing L-Glutamine and were supplemented with 10% FBS (GE Healthcare, Austria) and 1% PenStrep (Life Technologies, Germany) in a humidified incubator at 37 °C and 5% CO2.
(§2) Cells were seeded at cell numbers that assure linearity and optimal signal intensity (150-300 cells/well, 25 µL) and cultured for 24 hours in serum- and antibiotics-containing media in humidified chambers at 37 °C / 5% CO2. The cells were then treated with EGFR inhibitors in serial
(§3) Afterwards viability studies were carried out using CellTiter-Glo Assay (Promega, USA) that is a homogeneous method of determining the number of viable cells in culture. It is based on quantification of ATP, indicating the presence of metabolically active cells. For these studies, CellTiter-Glo reagent was prepared according to the instructions of the kit and diluted 1:1 with the complete growth medium suitable for the corresponding cell line. Thereon, reagent and assay plates were equilibrated at room temperature for 20 min. Equal volumes of the reagent were added to the volume of culture medium present in each well (25 µL). The plates were mixed for 2 minutes on an orbital shaker to induce cell lysis. The microplates were then incubated at room temperature for 20 minutes for stabilization of the luminescent signal. Following incubation the luminescence was recorded on an EnVision microplate reader (Perkin Elmer) using 500 ms integration time. The data was then analyzed using the Quattro Research Software Suite for EC50-determination. As quality control the Z’-factor was calculated from 16 positive and negative control values. Only assay results showing a Z’-factor ≥0.5 were used for further analysis. All data points were measured in duplicates for each plate and were replicated in at least two plates.
A further experiment deals with H358 cells (KRAS mutant). Kind of experiment: CellTiter-Glo viability assay, H358.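 Note: viable cell number estimated from ATP-dependent luminescence following exposure to serially diluted inhibitor.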 The class given is cell-based. The conditions noted are these: Homo sapiens, NCI-H358; H358, 96 hours, CellTiter-Glo; read-out: KRAS CTG EC50 H358.
The subject of experiment [2] is H1975 cells (EGFR-L858R/T790M). Kind of experiment: CellTiter-Glo viability assay, H1975.
Method: as §1, §2, §3
Experiment [3] deals with HCC827 cells (EGFR-delE746_A750). The experiment can be described thus: CellTiter-Glo viability assay, HCC827.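 Note: luminescence from ATP content as a measure of metabolically active cells, in RPMI with 10% FBS, compound added as serial dilutions after 24 h of preculture.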 It counts as cell-based. The conditions noted are these: Homo sapiens; HCC827, 96 hours, CellTiter-Glo; read-out: EGFR CTG EC50 HCC827.
Method: as §1, §2, §3
In a further experiment the test system is A549 cells (KRAS mutant). Kind of experiment: CellTiter-Glo viability assay, A549. The conditions noted are these: Homo sapiens, A549, 96 h, read-out: KRAS CTG EC50 A549.
A further experiment deals with EGFR-wt (Homo sapiens, UniProt P00533). The experiment can be described thus: HTRF KinEASE-TK activity-based assay, EGFR-wt.
For a further experiment, the target named is EGFR-L858R/T790M (Homo sapiens, UniProt P00533, L858R/T790M). Kind of experiment: HTRF KinEASE-TK activity-based assay, EGFR-L858R/T790M.
In the next experiment the target is EGFR-L858R (Homo sapiens, UniProt P00533, L858R). The experiment can be described thus: HTRF KinEASE-TK activity-based assay, EGFR-L858R. In general terms: TR-FRET usually uses a lanthanide donor and a delayed reading to cut background.
Setting [4] is: Homo sapiens, NCI-H1975, 96 h, read-out: EGFR CTG EC50 H1975, H1975, 96 hours, CellTiter-Glo.
Setting [5] is: EGFR HTRF IC50 wt, ATP at Km (9.5 µM), 30 min preincubation, mean ± SD of three independent measurements in duplicates.
The mark [6] stands for this setting: EGFR HTRF IC50 L858R/T790M, ATP at Km (4 µM), 30 min preincubation, mean ± SD of three independent measurements in duplicates.
[7] abbreviates: read-out: EGFR CTG EC50 H1975, H1975, 96 hours, CellTiter-Glo.

Molecules are shown by their SMILES. Where “and” joins values, the source holds several entries; their conditions need not be identical. Equal entries are not always repeated. Where two headings read alike, the source gives them in different places.

Chain of EGFR-wt (P00533 25-1210): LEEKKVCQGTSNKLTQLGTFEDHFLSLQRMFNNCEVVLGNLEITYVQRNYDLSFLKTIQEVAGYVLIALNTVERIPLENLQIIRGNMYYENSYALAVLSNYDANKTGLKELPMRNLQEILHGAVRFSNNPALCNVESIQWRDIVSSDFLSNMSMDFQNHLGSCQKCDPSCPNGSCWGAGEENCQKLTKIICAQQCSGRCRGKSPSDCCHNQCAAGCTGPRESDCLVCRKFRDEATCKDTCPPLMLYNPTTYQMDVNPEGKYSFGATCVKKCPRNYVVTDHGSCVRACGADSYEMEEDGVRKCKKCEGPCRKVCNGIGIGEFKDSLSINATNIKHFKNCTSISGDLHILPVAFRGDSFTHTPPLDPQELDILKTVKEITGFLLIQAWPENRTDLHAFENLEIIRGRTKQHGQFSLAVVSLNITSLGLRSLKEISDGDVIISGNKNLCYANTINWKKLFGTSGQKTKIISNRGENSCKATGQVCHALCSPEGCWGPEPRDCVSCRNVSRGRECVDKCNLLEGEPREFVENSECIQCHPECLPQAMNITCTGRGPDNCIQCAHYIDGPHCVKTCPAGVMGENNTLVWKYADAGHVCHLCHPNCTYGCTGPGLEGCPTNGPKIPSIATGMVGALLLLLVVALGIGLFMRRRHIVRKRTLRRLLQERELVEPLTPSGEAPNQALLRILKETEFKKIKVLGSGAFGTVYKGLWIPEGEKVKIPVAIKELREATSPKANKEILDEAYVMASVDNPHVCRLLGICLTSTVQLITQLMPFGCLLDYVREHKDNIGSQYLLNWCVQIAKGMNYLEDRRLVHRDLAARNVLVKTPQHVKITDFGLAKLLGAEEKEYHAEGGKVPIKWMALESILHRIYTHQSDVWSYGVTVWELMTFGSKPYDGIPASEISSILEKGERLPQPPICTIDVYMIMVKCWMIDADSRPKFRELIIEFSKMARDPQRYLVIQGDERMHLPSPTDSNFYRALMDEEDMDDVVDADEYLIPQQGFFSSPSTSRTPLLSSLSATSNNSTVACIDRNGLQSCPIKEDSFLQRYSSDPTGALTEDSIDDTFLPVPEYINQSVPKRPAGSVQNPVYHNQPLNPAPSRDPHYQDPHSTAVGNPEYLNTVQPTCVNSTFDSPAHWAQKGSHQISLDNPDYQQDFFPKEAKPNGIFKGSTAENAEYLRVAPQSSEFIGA
Chain of EGFR-L858R (P00533 25-1210 L858R): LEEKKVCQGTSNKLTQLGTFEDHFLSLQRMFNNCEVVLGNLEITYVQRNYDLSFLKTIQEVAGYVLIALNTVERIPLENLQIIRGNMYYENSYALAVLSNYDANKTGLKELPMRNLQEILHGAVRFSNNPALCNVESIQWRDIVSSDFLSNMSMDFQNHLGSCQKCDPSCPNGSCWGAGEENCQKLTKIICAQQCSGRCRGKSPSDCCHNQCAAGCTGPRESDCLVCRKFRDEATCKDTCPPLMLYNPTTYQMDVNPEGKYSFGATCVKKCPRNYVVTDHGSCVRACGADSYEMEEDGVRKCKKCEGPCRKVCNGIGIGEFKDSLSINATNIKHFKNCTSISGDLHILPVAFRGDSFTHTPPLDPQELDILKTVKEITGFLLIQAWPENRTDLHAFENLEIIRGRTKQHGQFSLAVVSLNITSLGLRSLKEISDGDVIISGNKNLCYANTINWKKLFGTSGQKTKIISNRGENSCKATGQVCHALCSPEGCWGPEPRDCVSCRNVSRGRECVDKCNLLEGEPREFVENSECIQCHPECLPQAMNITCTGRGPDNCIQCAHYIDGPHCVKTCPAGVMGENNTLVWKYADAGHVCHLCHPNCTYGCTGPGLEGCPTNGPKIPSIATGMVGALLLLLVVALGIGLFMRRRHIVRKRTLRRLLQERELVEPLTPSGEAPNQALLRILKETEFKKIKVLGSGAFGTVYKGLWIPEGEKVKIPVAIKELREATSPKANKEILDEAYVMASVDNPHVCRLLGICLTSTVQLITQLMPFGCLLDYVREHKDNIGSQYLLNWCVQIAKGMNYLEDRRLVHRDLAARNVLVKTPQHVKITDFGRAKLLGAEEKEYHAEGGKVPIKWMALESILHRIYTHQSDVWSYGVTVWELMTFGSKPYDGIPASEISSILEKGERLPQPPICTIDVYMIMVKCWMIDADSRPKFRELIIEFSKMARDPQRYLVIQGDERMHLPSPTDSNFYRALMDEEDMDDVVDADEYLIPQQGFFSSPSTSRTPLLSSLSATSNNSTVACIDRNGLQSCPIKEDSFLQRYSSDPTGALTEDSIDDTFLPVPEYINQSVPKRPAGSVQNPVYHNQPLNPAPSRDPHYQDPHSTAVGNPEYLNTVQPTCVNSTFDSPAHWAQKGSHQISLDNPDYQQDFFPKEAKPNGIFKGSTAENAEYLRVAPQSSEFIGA
Chain of EGFR-L858R/T790M (P00533 25-1210 T790M/L858R): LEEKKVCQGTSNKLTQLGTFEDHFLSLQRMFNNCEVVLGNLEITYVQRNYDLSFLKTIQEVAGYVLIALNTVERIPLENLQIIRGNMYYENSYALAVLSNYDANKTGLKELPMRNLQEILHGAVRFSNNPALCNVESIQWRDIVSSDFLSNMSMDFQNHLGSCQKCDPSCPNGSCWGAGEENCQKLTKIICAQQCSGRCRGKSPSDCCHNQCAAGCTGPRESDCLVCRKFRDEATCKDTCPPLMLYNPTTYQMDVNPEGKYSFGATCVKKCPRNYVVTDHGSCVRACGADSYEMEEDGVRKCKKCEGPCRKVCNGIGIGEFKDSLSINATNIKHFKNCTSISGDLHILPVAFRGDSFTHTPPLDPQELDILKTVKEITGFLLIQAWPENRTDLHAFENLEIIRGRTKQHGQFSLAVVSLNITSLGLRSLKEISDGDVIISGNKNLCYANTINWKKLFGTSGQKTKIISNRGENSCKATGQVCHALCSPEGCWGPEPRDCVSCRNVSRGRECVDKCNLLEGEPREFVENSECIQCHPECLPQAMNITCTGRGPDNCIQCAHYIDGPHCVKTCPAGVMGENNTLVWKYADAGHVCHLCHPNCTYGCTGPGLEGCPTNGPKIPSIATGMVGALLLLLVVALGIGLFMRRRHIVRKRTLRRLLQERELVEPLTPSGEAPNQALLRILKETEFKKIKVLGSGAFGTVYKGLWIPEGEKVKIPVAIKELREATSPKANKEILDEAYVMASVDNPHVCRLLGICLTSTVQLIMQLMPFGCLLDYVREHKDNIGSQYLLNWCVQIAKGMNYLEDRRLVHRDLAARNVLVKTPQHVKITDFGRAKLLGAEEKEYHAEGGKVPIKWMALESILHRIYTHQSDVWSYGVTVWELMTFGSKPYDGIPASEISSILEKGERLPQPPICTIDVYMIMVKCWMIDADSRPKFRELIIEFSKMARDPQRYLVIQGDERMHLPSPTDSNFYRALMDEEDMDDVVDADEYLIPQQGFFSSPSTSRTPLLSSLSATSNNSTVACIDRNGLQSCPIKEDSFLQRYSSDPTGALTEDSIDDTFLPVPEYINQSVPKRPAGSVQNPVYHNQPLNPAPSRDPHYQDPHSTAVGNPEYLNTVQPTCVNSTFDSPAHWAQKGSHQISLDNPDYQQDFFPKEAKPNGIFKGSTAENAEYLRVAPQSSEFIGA
Method for A549 cells (KRAS mutant): as §1, §2, §3
Method for H358 cells (KRAS mutant): as §1, §2, §3

With `CCN1CCN(Cc2ccc(-c3cc4c(N[C@H](C)c5ccccc5)ncnc4[nH]3)cc2)CC1` [AEE788, reference compound], the EC50 in experiment [1] is 1790 ± 1090 nM; in the experiment on H358 cells (KRAS mutant), 3.78 ± 0.383 µM; in experiment [2] (setting [4]), 4680 ± 1030 nM; in experiment [3], 16 ± 3 nM; in the experiment with A549 cells (KRAS mutant), 3.97 ± 0.72 µM.
What is called IC50 is the midpoint of a concentration-inhibition curve. A lower IC50 goes with greater potency. For `CCC(=O)Nc1cccc(-c2c(-c3ccccc3)[nH]c3ncnc(OC)c23)c1` [Compound 1b], the IC50 was 5370 ± 1920 nM against EGFR-wt (setting [5]); 5000 nM at EGFR-wt (IC50 EGFR-wt, rounded value); 3960 ± 614 nM against EGFR-L858R/T790M (setting [6]); 4000 nM against EGFR-L858R/T790M (IC50 gatekeeper mutant EGFR, rounded value); 1700 ± 747 nM against EGFR-L858R. Further, the EC50 in experiment [1] was over 30000 nM; in the experiment on H358 cells (KRAS mutant), over 30 µM; in experiment [2] (setting [4]), over 30000 nM; in the experiment with A549 cells (KRAS mutant), over 30 µM.
Turning to `C=CC(=O)Nc1cccc(-c2c[nH]c3ncnc(OC)c23)c1` [Compound 9], the IC50 is 82 ± 4 nM against EGFR-wt (setting [5]); < 100 nM and 31 nM against EGFR-L858R/T790M (setting [6]); 14 ± 2 nM against EGFR-L858R. In addition, the EC50 in the experiment on H358 cells (KRAS mutant) was found to be 24.5 ± 4.87 µM; in experiment [2] (setting [4]), 9910 ± 3390 nM; in experiment [3], 2170 ± 968 nM; with A549 cells (KRAS mutant) it was 13.6 ± 1.41 µM.
Consider `COc1ncnc2[nH]c(-c3ccc(C)cc3)c(-c3cccc(NC(=O)C=CCN4CCCCC4)c3)c12` [Compound 10c], for which the IC50 on EGFR-wt (setting [5]) stood at 220 ± 57 nM; at EGFR-L858R/T790M (setting [6]), 158 ± 16 nM; at EGFR-L858R, 197 ± 11 nM. Moreover, the EC50 in experiment [1] is 2750 ± 1220 nM; in the experiment with H358 cells (KRAS mutant), 4.25 ± 0.336 µM; in experiment [2] (setting [4]), 1900 ± 269 nM; in experiment [2] (Homo sapiens, NCI-H1975, read-out: EC50 / potency in H1975 cells, H1975, rounded value in running text), about 2000 nM; in experiment [3] it was 253 ± 1 nM; in the experiment with A549 cells (KRAS mutant), 4.49 ± 0.896 µM.
For `CCC(=O)Nc1cccc(-c2c(-c3ccc(CN4CCN(C)CC4)cc3)[nH]c3ncnc(OC)c23)c1` [Compound 17b], the figures for the concentration for half-maximal inhibition (IC50) against EGFR-wt (setting [5]), on EGFR-L858R/T790M (setting [6]) and on EGFR-L858R were 460 ± 162 nM, 302 ± 84 nM and 116 ± 57 nM, respectively. The EC50 in experiment [1] came out at 5670 ± 60 nM; in the experiment with H358 cells (KRAS mutant) it was 10.3 ± 2.17 µM; in experiment [2] (setting [4]), 9610 ± 1120 nM; in experiment [3] it was 1520 ± 399 nM; in the experiment with A549 cells (KRAS mutant), 5.73 ± 1.43 µM.
Regarding `C=CC(=O)Nc1cccc(-c2c(-c3ccc(N4CCN(C)CC4)cc3)[nH]c3ncnc(OC)c23)c1` [Compound 19a], the IC50 stood at 0.4 nM against EGFR-wt (setting [5]), 0.2 nM at EGFR-L858R/T790M (setting [6]) and 0.1 nM against EGFR-L858R. Besides, the EC50 is 638 ± 247 nM in experiment [1]; 1.67 ± 0.721 µM in the experiment with H358 cells (KRAS mutant); 60 ± 8 nM in experiment [2] (setting [4]); under 14 nM in experiment [3]; 0.84 ± 0.289 µM in the experiment with A549 cells (KRAS mutant).
As for `CCC(=O)Nc1cccc(-c2c(-c3ccc(N4CCN(C)CC4)cc3)[nH]c3ncn(C)c(=O)c23)c1` [Compound 19b], the results for the IC50 against EGFR-wt (setting [5]), on EGFR-L858R/T790M (setting [6]) and against EGFR-L858R were 996 ± 395 nM, 305 ± 192 nM and 147 ± 97 nM, respectively. In addition, the EC50 in experiment [1] worked out at 9730 ± 4020 nM; in the experiment on H358 cells (KRAS mutant), 10.2 ± 2.24 µM; in experiment [3] it was 1790 ± 727 nM; in the experiment on A549 cells (KRAS mutant), 6.27 ± 1.09 µM.
In the case of `C=CC(=O)Nc1cccc(-c2c(-c3ccc(N4CCN(C)CC4)cc3)[nH]c3ncnc(OCC)c23)c1` [Compound 19c], the IC50 against EGFR-wt (setting [5]) is 0.2 ± 0.1 nM; against EGFR-L858R/T790M (setting [6]), 0.1 ± 0.1 nM; against EGFR-L858R, under 0.1 nM. Further, the EC50 is 759 ± 394 nM in experiment [1]; 1.66 ± 0.759 µM in the experiment on H358 cells (KRAS mutant); 64 ± 25 nM in experiment [2] (setting [4]); under 14 nM in experiment [3]; 1.02 ± 0.046 µM in the experiment on A549 cells (KRAS mutant).
`C=CC(=O)Nc1cccc(-c2c(-c3ccc(N4CCN(C)CC4)cc3)[nH]c3ncnc(OCCCSC)c23)c1` [Compound 19e]: the figures for the IC50 against EGFR-wt (setting [5]), at EGFR-L858R/T790M (setting [6]) and against EGFR-L858R were 0.2 nM, 0.1 ± 0.1 nM and under 0.1 nM, respectively. The EC50 in experiment [1] is 3680 ± 500 nM; in the experiment on H358 cells (KRAS mutant), 2.57 ± 0.338 µM; in experiment [2] (setting [4]) it was 281 ± 88 nM; in experiment [3] it was under 14 nM; in the experiment on A549 cells (KRAS mutant), 3.01 ± 0.916 µM.
As for `C=CC(=O)Nc1cccc(-c2c(-c3ccc(N4CCN(C)CC4)cc3)[nH]c3nc[nH]c(=O)c23)c1` [Compound 19i], the IC50 against EGFR-wt (setting [5]) was determined as 12 ± 4 nM; against EGFR-L858R/T790M (setting [6]), 24 ± 12 nM; on EGFR-L858R, 12 ± 4 nM. In addition, the figures for the EC50 (with H358 cells (KRAS mutant); in experiment [3]; in the experiment with A549 cells (KRAS mutant)) were over 30 µM, 557 ± 266 nM and over 30 µM, respectively.
Take `C=CC(=O)Nc1cc(-c2c(-c3ccc(N4CCN(C)CC4)cc3)[nH]c3ncnc(OC)c23)ccc1OCCOC` [Compound 20a]: the results for the IC50 on EGFR-wt (setting [5]), against EGFR-L858R/T790M (setting [6]) and at EGFR-L858R were 0.2 ± 0.1 nM, under 0.1 nM and under 0.1 nM, respectively. The EC50 with H358 cells (KRAS mutant) was 1.1 µM; in experiment [2] (setting [4]), about 300 nM; in experiment [2] (setting [7]) it was 298 ± 251 nM; in experiment [3], under 14 nM; in the experiment with A549 cells (KRAS mutant), 0.956 µM.
Take `C=CC(=O)Nc1cccc(-c2c(-c3ccc(N4CCN(C)CC4)cc3)[nH]c3ncn(C)c(=O)c23)c1` [Compound 29a]: the results for the IC50 against EGFR-wt (setting [5]), at EGFR-L858R/T790M (setting [6]) and at EGFR-L858R were 1.2 ± 0.1 nM, 0.5 nM and 0.5 nM, respectively. The EC50 in experiment [1] was 1140 ± 350 nM; with H358 cells (KRAS mutant), 9.51 ± 0.403 µM; in experiment [2] (setting [4]), under 200 nM; in experiment [2] (setting [7]), 188 ± 64 nM; in experiment [3], 82 ± 20 nM; with A549 cells (KRAS mutant), 8.82 ± 0.697 µM.
Consider `C#CCn1cnc2[nH]c(-c3ccc(N4CCN(C)CC4)cc3)c(-c3cccc(NC(=O)C=C)c3)c2c1=O` [Compound 29c], for which the IC50 amounted to 5.1 ± 0.1 nM against EGFR-wt (setting [5]), 4.9 ± 1.3 nM at EGFR-L858R/T790M (setting [6]) and 4 ± 2.7 nM against EGFR-L858R. Also, the EC50 in experiment [1] was 1020 ± 335 nM; with H358 cells (KRAS mutant), 2.04 µM; in experiment [2] (setting [4]), 183 ± 48 nM; in experiment [3], 22 ± 2 nM; in the experiment on A549 cells (KRAS mutant) it was 1.39 µM.
As for `C=CC(=O)Nc1cccc(-c2c(-c3ccc(N4CCN(C)CC4)cc3)[nH]c3ncn(CCCC)c(=O)c23)c1` [Compound 29d], the IC50 on EGFR-wt (setting [5]) amounted to 0.2 nM; on EGFR-L858R/T790M (setting [6]), 4.5 ± 0.8 nM; against EGFR-L858R, 0.3 ± 0.3 nM. Moreover, the EC50 in experiment [1] was 767 ± 151 nM; in the experiment with H358 cells (KRAS mutant) it was 3.27 ± 0.693 µM; in experiment [2] (setting [4]), 550 ± 157 nM; in experiment [3] it was under 14 nM; with A549 cells (KRAS mutant), 2.97 ± 1.07 µM.
Turning to `C=CC(=O)Nc1cccc(-c2c(-c3ccc(N4CCN(C)CC4)cc3)[nH]c3ncn(CCSC)c(=O)c23)c1` [Compound 29e], the IC50 came to 0.4 ± 0.1 nM against EGFR-wt (setting [5]), 0.9 ± 0.1 nM at EGFR-L858R/T790M (setting [6]) and 0.1 ± 0.1 nM against EGFR-L858R. Besides, the EC50 in experiment [1] was 1870 ± 595 nM; with H358 cells (KRAS mutant), over 30 µM; in experiment [2] (setting [4]), 723 ± 188 nM; in experiment [3], under 14 nM; with A549 cells (KRAS mutant), 22.4 ± 11.2 µM.
Take `C=CC(=O)Nc1cccc(-c2c(-c3ccc(N4CCN(C)CC4)cc3)[nH]c3ncn(CCCSC)c(=O)c23)c1` [Compound 29f]: the results for the IC50 against EGFR-wt (setting [5]), against EGFR-L858R/T790M (setting [6]) and on EGFR-L858R were 4.6 ± 1.1 nM, 20 ± 6 nM and 1.7 ± 0.5 nM, respectively. Besides, the EC50 in the experiment on H358 cells (KRAS mutant) was 11.9 µM; in experiment [3] it was 134 nM; in the experiment on A549 cells (KRAS mutant), 24.7 ± 7.55 µM.
As for `Cc1cc(C(=O)Nc2nc3cccc(Cl)c3n2[C@@H]2CCCCN(C(=O)/C=C/CN(C)C)C2)ccn1` [EGF816, nazartinib, reference compound], the EC50 is 4380 ± 1390 nM in experiment [1], 296 ± 64 nM in experiment [2] (setting [4]) and under 14 nM in experiment [3].
The matching figures for `C=CC(=O)Nc1cccc(Nc2nc(Nc3ccc(N4CCN(C(C)=O)CC4)cc3OC)ncc2C(F)(F)F)c1` [Rociletinib, rociletinib, reference compound]: 1910 ± 467 nM, 145 ± 86 nM and 45 ± 11 nM.
